# Measurements published in PubChem BioAssay (NCI).
#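 48-hour exposure; five concentrations; linearly interpolated endpoints. TGI is the concentration that stops growth completely.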
# Tests used:
# Experiment in all cases: NCI-60 cell line screen, 48 h
# [1] = system: 786-0 renal
# [2] = system: A498 renal
# [3] = system: A549 NSCLC
# [4] = system: ACHN renal
# [5] = system: CAKI-1 renal
# [6] = system: CCRF-CEM leukemia
# [7] = system: COLO 205 colon
# [8] = system: DLD-1 colon
# [9] = system: DMS 114 small cell lung
# [10] = system: DMS 273 small cell lung
# [11] = system: HCC-2998 colon
# [12] = system: HCT-116 colon
# [13] = system: HCT-15 colon
# [14] = system: HL-60(TB) leukemia
# [15] = system: HOP-18 NSCLC
# [16] = system: HOP-62 NSCLC
# [17] = system: HT29 colon
# [18] = system: IGROV1 ovarian
# [19] = system: K-562 leukemia
# [20] = system: KM12 colon
# [21] = system: KM20L2 colon
# [22] = system: LOX IMVI melanoma
# [23] = system: LXFL 529 NSCLC
# [24] = system: M14 melanoma
# [25] = system: M19-MEL melanoma
# [26] = system: MALME-3M melanoma
# [27] = system: MOLT-4 leukemia
# [28] = system: NCI-H226 lung
# [29] = system: NCI-H23 lung
# [30] = system: NCI-H460 lung
# [31] = system: NCI-H522 lung
# [32] = system: OVCAR-3 ovarian
# [33] = system: OVCAR-4 ovarian
# [34] = system: OVCAR-5 ovarian
# [35] = system: OVCAR-8 ovarian
# [36] = system: RPMI-8226 leukemia
# [37] = system: RXF 393 renal
# [38] = system: SF-268 CNS
# [39] = system: SF-295 CNS
# [40] = system: SF-539 CNS
# [41] = system: SK-MEL-2 melanoma
# [42] = system: SK-MEL-28 melanoma
# [43] = system: SK-MEL-5 melanoma
# [44] = system: SK-OV-3 ovarian
# [45] = system: SN12C renal
# [46] = system: SNB-19 CNS
# [47] = system: SNB-75 CNS
# [48] = system: SNB-78 CNS
# [49] = system: SW-620 colon
# [50] = system: TK-10 renal
# [51] = system: U251 CNS
# [52] = system: UACC-257 melanoma
# [53] = system: UO-31 renal
compound,measurement,setting,value
CCN(CC)c1cccc2c1C1(O)CCC3(CC21)OCCCCO3 (stereo not drawn),TGI,[1],> 100 µM
same,TGI,[2],> 100 µM
same,TGI,[3],> 100 µM
same,TGI,[4],> 100 µM
same,TGI,[5],> 100 µM
same,TGI,[6],> 100 µM
same,TGI,[7],> 100 µM
same,TGI,[8],> 100 µM
same,TGI,[9],> 100 µM
same,TGI,[10],> 100 µM
same,TGI,[11],> 100 µM
same,TGI,[12],> 100 µM
same,TGI,[13],> 100 µM
same,TGI,[14],> 100 µM
same,TGI,[15],> 100 µM
same,TGI,[16],> 100 µM
same,TGI,[17],> 100 µM
same,TGI,[18],> 100 µM
same,TGI,[19],> 100 µM
same,TGI,[20],> 100 µM
same,TGI,[21],> 100 µM
same,TGI,[22],> 100 µM
same,TGI,[23],> 100 µM
same,TGI,[24],> 100 µM
same,TGI,[25],> 100 µM
same,TGI,[26],> 100 µM
same,TGI,[27],> 100 µM
same,TGI,[28],> 100 µM
same,TGI,[29],> 100 µM
same,TGI,[30],> 100 µM
same,TGI,[31],> 100 µM
same,TGI,[32],> 100 µM
same,TGI,[33],> 100 µM
same,TGI,[34],> 100 µM
same,TGI,[35],> 100 µM
same,TGI,[36],> 100 µM
same,TGI,[37],53.6 µM
same,TGI,[38],> 100 µM
same,TGI,[39],> 100 µM
same,TGI,[40],> 100 µM
same,TGI,[41],> 100 µM
same,TGI,[42],> 100 µM
same,TGI,[43],> 100 µM
same,TGI,[44],> 100 µM
same,TGI,[45],> 100 µM
same,TGI,[46],41 µM
same,TGI,[47],> 100 µM
same,TGI,[48],> 100 µM
same,TGI,[49],> 100 µM
same,TGI,[50],> 100 µM
same,TGI,[51],> 100 µM
same,TGI,[52],> 100 µM
same,TGI,[53],> 100 µM
